Results as given in paper PMC4014698 (Pharmaceuticals, 2014).
Values after ≈ are worked out from the molar mass of the structure shown. Non-standard residues stand in square brackets, D forms with d. Residues, ends and D or L forms follow the SMILES beside them.

Columns and labels:
P. aeruginosa strain WR5 = conditions: source burn patient; Mueller-Hinton medium, 37 °C, 24 h, 5 × 10^5 CFU/mL; three sets of determinations
From the text: (§1) P. aeruginosa strains used are as follows: strain PAO1 was isolated from a human wound in 1955 in Australia; strain WR5 was isolated from a burn patient at Walter Reed Army Hospital, Washington, DC, USA, in 1976 and is a natural toxA^− mutant, but is virulent in experimental mouse models; strain PAK was originally isolated at Memorial University, St. John’s, Newfoundland, Canada, and is widely used in the analysis of pili; strain PA14 was originally isolated as a clinical isolate in 1995 at the Massachusetts General Hospital, Boston, MA, USA and is virulent in a variety of plant and animal models of infection; strain M2 was originally isolated in 1975 from the gastrointestinal tract of a healthy CF1 mouse, University of Cincinnati College of Medicine, and Shriners Burns Institute, Cincinnati, OH, USA and is virulent in a burn mouse model of P. aeruginosa infection; and strain CP204 was isolated from a cystic fibrosis patient in 1989 at the National Jewish Medical and Research Center, Denver, CO, USA. All strains have been maintained at −80 °C in the laboratory of Michael Vasil, University of Colorado, School of Medicine.
(§2) The minimal inhibitory concentration (MIC) is defined as the lowest peptide concentration that inhibited bacterial growth. MICs were measured by a standard microtiter dilution method in Mueller Hinton (MH) medium. Briefly, cells were grown overnight at 37 °C in MH broth and were diluted in the same medium. […] The plates were incubated at 37 °C for 24 h, and the MICs were determined.

P. aeruginosa strain M2 = conditions: source burn mouse model; Mueller-Hinton medium, 37 °C, 24 h, 5 × 10^5 CFU/mL; three sets of determinations
From the text: as §1, §2

P. aeruginosa strain PAK = conditions: Mueller-Hinton medium, 37 °C, 24 h, 5 × 10^5 CFU/mL; three sets of determinations
From the text: as §1, §2

[1] = tested on: P. aeruginosa strain PA14; conditions: Mueller-Hinton medium, 37 °C, 24 h, 5 × 10^5 CFU/mL; three sets of determinations
From the text: as §1, §2

[2] = tested on: P. aeruginosa strain PAO1; conditions: source human wound; Mueller-Hinton medium, 37 °C, 24 h, 5 × 10^5 CFU/mL; three sets of determinations
From the text: as §1, §2

[3] = tested on: P. aeruginosa strain CP204; conditions: source cystic fibrosis patient; Mueller-Hinton medium, 37 °C, 24 h, 5 × 10^5 CFU/mL; three sets of determinations
From the text: as §1, §2

[4] = tested on: Pseudomonas aeruginosa (6 different isolates); conditions: geometric mean of the MIC values from 6 different isolates of P. aeruginosa; Table 3B
From the text: as §1, §2
Geometric mean of MIC values was calculated to provide an overall view of antimicrobial activity of different analogs.

A. baumannii strain 1012 = type: cell-based, Acinetobacter baumannii; conditions: source sputum; Mueller-Hinton medium, 37 °C, 24 h, 5 × 10^5 CFU/mL; three sets of determinations
From the text: (§3) All the A. baumannii strains used in this study were (1) obtained from the collection of Dr. Anthony A. Campagnari at the University of Buffalo and originally isolated from different patients and organs/tissues (strain 649, blood; strain 689, groin; strain 759, gluteus; strain 821, urine; strain 884, axilla; strain 899, perineum; strain 964, throat; strain 985, pleural fluid and strain 1012, sputum); (2) were purchased from the American Type Culture Collection (ATCC, Manassas, VA, USA) (strain ATCC 17978, fatal meningitis; and strain ATCC 19606, urine).
(§4) The minimal inhibitory concentration (MIC) is defined as the lowest peptide concentration that inhibited bacterial growth. MICs were measured by a standard microtiter dilution method in Mueller Hinton (MH) medium. Briefly, cells were grown overnight at 37 °C in MH broth and were diluted in the same medium. Serial dilutions of the peptides were added to the microtiter plates in a volume of 50 µL, followed by the addition of 50 µL of bacteria to give a final inoculum of 5 × 10^5 colony-forming units (CFU)/mL. The plates were incubated at 37 °C for 24 h, and the MICs were determined.

[5] = tested on: A. baumannii strain ATCC 17978; type: cell-based, Acinetobacter baumannii; conditions: ATCC 17978, 24 h
From the text: as §3, §4

A. baumannii strain 964 = type: cell-based, Acinetobacter baumannii; conditions: source throat; Mueller-Hinton medium, 37 °C, 24 h, 5 × 10^5 CFU/mL; three sets of determinations
From the text: as §3, §4

A. baumannii strain 689 = type: cell-based, Acinetobacter baumannii; conditions: source groin; Mueller-Hinton medium, 37 °C, 24 h, 5 × 10^5 CFU/mL; three sets of determinations
From the text: as §3, §4

A. baumannii strain 899 = type: cell-based, Acinetobacter baumannii; conditions: source perineum; Mueller-Hinton medium, 37 °C, 24 h, 5 × 10^5 CFU/mL; three sets of determinations
From the text: as §3, §4

A. baumannii strain 985 = type: cell-based, Acinetobacter baumannii; conditions: source pleural fluid; Mueller-Hinton medium, 37 °C, 24 h, 5 × 10^5 CFU/mL; three sets of determinations
From the text: as §3, §4

[6] = tested on: Acinetobacter baumannii (11 different isolates); type: cell-based; conditions: geometric mean of the MIC values from 11 different isolates of A. baumannii; Table 3A
From the text: as §3, §4
Antibacterial activities against six strains of P. aeruginosa and eleven strains of A. baumannii are compared in Table 3. Geometric mean of MIC values was calculated to provide an overall view of antimicrobial activity of different analogs. It is clear that our peptides were effective in killing the microorganisms tested. Compared to a dramatic reduction in hemolytic activity, antibacterial activity of D-piscidin 1 and D-dermaseptin S4 analogs against eleven strains of A. baumannii maintained the same level (within 2-fold) upon the substitution of “specificity determinant(s)” (Table 3).

human erythrocytes = experiment: Hemolytic activity (HC50); type: cell-based; conditions: for Hemolytic activity HC50: concentration giving 50% hemolysis after 18 h at 37 °C, 1% human erythrocytes in PBS pH 7.4, hemoglobin release at 570 nm, 100% control water (Figure 7)
Method: Hemoglobin release was determined spectrophotometrically at 570 nm.
From these plots, the HC50 values, the peptide concentration that produces 50% hemolysis of human red blood cells after 18 hours in the standard microtiter dilution method was determined.

[7] = tested on: A. baumannii strain ATCC 19606; experiment: MIC, microtiter dilution; type: cell-based, Acinetobacter baumannii; conditions: source urine; Mueller-Hinton medium, 37 °C, 24 h, 5 × 10^5 CFU/mL; three sets of determinations
From the text: as §3, §4

A. baumannii strain 649 = experiment: MIC, microtiter dilution; type: cell-based, Acinetobacter baumannii; conditions: source blood; Mueller-Hinton medium, 37 °C, 24 h, 5 × 10^5 CFU/mL; three sets of determinations
From the text: as §3, §4

A. baumannii strain 759 = experiment: MIC, microtiter dilution; type: cell-based, Acinetobacter baumannii; conditions: source gluteus; Mueller-Hinton medium, 37 °C, 24 h, 5 × 10^5 CFU/mL; three sets of determinations
From the text: as §3, §4

A. baumannii strain 884 = experiment: MIC, microtiter dilution; type: cell-based, Acinetobacter baumannii; conditions: source axilla; Mueller-Hinton medium, 37 °C, 24 h, 5 × 10^5 CFU/mL; three sets of determinations
From the text: as §3, §4

A. baumannii strain 821 = experiment: MIC, microtiter dilution; type: cell-based, Acinetobacter baumannii; conditions: source urine; Mueller-Hinton medium, 37 °C, 24 h, 5 × 10^5 CFU/mL; three sets of determinations
From the text: as §3, §4

| SMILES | MIC WR5 (P. aeruginosa strain WR5) | MIC M2 (P. aeruginosa strain M2) | MIC PAK (P. aeruginosa strain PAK) | MIC PA14 [1] | MIC PAO1 [2] | MIC CP204 [3] | MIC GM [4] | MIC 1012 (A. baumannii strain 1012) | MIC ATCC17978 [5] | MIC 964 (A. baumannii strain 964) | MIC 689 (A. baumannii strain 689) | MIC 899 (A. baumannii strain 899) | MIC 985 (A. baumannii strain 985) | MIC GM [6] | Hemolytic activity HC50 (human erythrocytes) | MIC ATCC19606 [7] | MIC 649 (A. baumannii strain 649) | MIC 759 (A. baumannii strain 759) | MIC 884 (A. baumannii strain 884) | MIC 821 (A. baumannii strain 821) | other results |
| --- | --- | --- | --- | --- | --- | --- | --- | --- | --- | --- | --- | --- | --- | --- | --- | --- | --- | --- | --- | --- | --- |
| CC[C@@H](C)[C@@H](NC(=O)[C@@H](Cc1c[nH]cn1)NC(=O)[C@@H](Cc1c[nH]cn1)NC(=O)[C@@H](Cc1ccccc1)NC(=O)[C@H](N)Cc1ccccc1)C(=O)N[C@H](Cc1ccccc1)C(=O)N[C@H](CCCNC(=N)N)C(=O)NCC(=O)N[C@H](CCCCN)C(=O)N[C@@H](C(=O)N[C@H](Cc1c[nH]cn1)C(=O)N[C@@H](C(=O)NCC(=O)N[C@H](CCCCN)C(=O)N[C@@H](C(=O)N[C@@H](C(=O)N[C@H](Cc1c[nH]cn1)C(=O)N[C@H](CCCNC(=N)N)C(=O)N[C@H](CC(C)C)C(=O)N[C@@H](C(=O)N[C@@H](C(=O)NCC(N)=O)[C@H](C)O)C(C)C)[C@H](C)CC)[C@H](C)O)C(C)C)C(C)C [D-Piscidin 1 I9K] (H-[dF][dF][dH][dH][dI][dF][dR]G[dK][dV][dH][dV]G[dK][dT][dI][dH][dR][dL][dV][dT]G-NH2) | 24.2 µM (≈ 62.6 µg/mL) | 48.3 µM (≈ 125 µg/mL) | 12.1 µM (≈ 31.3 µg/mL) | 24.2 µM (≈ 62.6 µg/mL) | 48.3 µM (≈ 125 µg/mL) | 48.3 µM (≈ 125 µg/mL) | 30.5 µM (≈ 78.9 µg/mL) | 6.0 µM (≈ 15.5 µg/mL) | 3.0 µM (≈ 7.76 µg/mL) | 3.0 µM (≈ 7.76 µg/mL) | 3.0 µM (≈ 7.76 µg/mL) | 3.0 µM (≈ 7.76 µg/mL) | 3.0 µM (≈ 7.76 µg/mL) | 3.0 µM (≈ 7.76 µg/mL) | 98 µM | 1.5 µM (≈ 3.88 µg/mL) | 3.0 µM (≈ 7.76 µg/mL) | 3.0 µM (≈ 7.76 µg/mL) | 3.0 µM (≈ 7.76 µg/mL) | 3.0 µM (≈ 7.76 µg/mL) | Hemolytic activity Fold improvement in HC50 (human erythrocytes): 54 fold; Hemolytic activity HC50, 18 hours (Figure 8 comparison) (human erythrocytes; 18 hours at 37 °C, human red blood cells, Figure 8, 100% control 0.1% Triton-X 100): 115 µM |
| CC[C@@H](C)[C@@H](NC(=O)CNC(=O)[C@@H](CCCNC(=N)N)NC(=O)[C@@H](Cc1ccccc1)NC(=O)[C@H](NC(=O)[C@@H](Cc1c[nH]cn1)NC(=O)[C@@H](Cc1c[nH]cn1)NC(=O)[C@@H](Cc1ccccc1)NC(=O)[C@H](N)Cc1ccccc1)[C@H](C)CC)C(=O)N[C@@H](C(=O)N[C@H](Cc1c[nH]cn1)C(=O)N[C@H](CCCCN)C(=O)NCC(=O)N[C@H](CCCCN)C(=O)N[C@@H](C(=O)N[C@@H](C(=O)N[C@H](Cc1c[nH]cn1)C(=O)N[C@H](CCCNC(=N)N)C(=O)N[C@H](CC(C)C)C(=O)N[C@@H](C(=O)N[C@@H](C(=O)NCC(N)=O)[C@H](C)O)C(C)C)[C@H](C)CC)[C@H](C)O)C(C)C [D-Piscidin 1 V12K] (H-[dF][dF][dH][dH][dI][dF][dR]G[dI][dV][dH][dK]G[dK][dT][dI][dH][dR][dL][dV][dT]G-NH2) | 12.0 µM (≈ 31.2 µg/mL) | 24.0 µM (≈ 62.4 µg/mL) | 6.0 µM (≈ 15.6 µg/mL) | 24.0 µM (≈ 62.4 µg/mL) | 24.0 µM (≈ 62.4 µg/mL) | 24.0 µM (≈ 62.4 µg/mL) | 17.0 µM (≈ 44.2 µg/mL) | 3.0 µM (≈ 7.8 µg/mL) | 3.0 µM (≈ 7.8 µg/mL) | 3.0 µM (≈ 7.8 µg/mL) | 3.0 µM (≈ 7.8 µg/mL) | 3.0 µM (≈ 7.8 µg/mL) | 1.5 µM (≈ 3.9 µg/mL) | 2.8 µM (≈ 7.28 µg/mL) | 35 µM | 3.0 µM (≈ 7.8 µg/mL) | 3.0 µM (≈ 7.8 µg/mL) | 3.0 µM (≈ 7.8 µg/mL) | 3.0 µM (≈ 7.8 µg/mL) | 3.0 µM (≈ 7.8 µg/mL) |  |
| CC[C@@H](C)[C@@H](NC(=O)CNC(=O)[C@@H](CCCNC(=N)N)NC(=O)[C@@H](Cc1ccccc1)NC(=O)[C@H](NC(=O)[C@@H](Cc1c[nH]cn1)NC(=O)[C@@H](Cc1c[nH]cn1)NC(=O)[C@@H](Cc1ccccc1)NC(=O)[C@H](N)Cc1ccccc1)[C@H](C)CC)C(=O)N[C@@H](C(=O)N[C@H](Cc1c[nH]cn1)C(=O)N[C@@H](C(=O)NCC(=O)N[C@H](CCCCN)C(=O)N[C@@H](C(=O)N[C@@H](C(=O)N[C@H](Cc1c[nH]cn1)C(=O)N[C@H](CCCNC(=N)N)C(=O)N[C@H](CC(C)C)C(=O)N[C@@H](C(=O)N[C@@H](C(=O)NCC(N)=O)[C@H](C)O)C(C)C)[C@H](C)CC)[C@H](C)O)C(C)C)C(C)C [D-Piscidin 1] (H-[dF][dF][dH][dH][dI][dF][dR]G[dI][dV][dH][dV]G[dK][dT][dI][dH][dR][dL][dV][dT]G-NH2) | 12.2 µM (≈ 31.4 µg/mL) | 24.3 µM (≈ 62.5 µg/mL) | 12.2 µM (≈ 31.4 µg/mL) | 24.3 µM (≈ 62.5 µg/mL) | 24.3 µM (≈ 62.5 µg/mL) | 24.3 µM (≈ 62.5 µg/mL) | 19.3 µM (≈ 49.6 µg/mL) | 6.1 µM (≈ 15.7 µg/mL) | 3.0 µM (≈ 7.71 µg/mL) | 3.0 µM (≈ 7.71 µg/mL) | 1.5 µM (≈ 3.86 µg/mL) | 3.0 µM (≈ 7.71 µg/mL) | 1.5 µM (≈ 3.86 µg/mL) | 2.8 µM (≈ 7.2 µg/mL) | 1.8 µM | 3.0 µM (≈ 7.71 µg/mL) | 3.0 µM (≈ 7.71 µg/mL) | 3.0 µM (≈ 7.71 µg/mL) | 3.0 µM (≈ 7.71 µg/mL) | 3.0 µM (≈ 7.71 µg/mL) | Hemolytic activity Fold improvement in HC50 (human erythrocytes): 1.0 fold |
